In brackets after ≈: the same amount, converted by molar mass. Read-outs that look alike come from different tables or passages of the source.
Experiments:
[1] = alamarBlue assay on T. cruzi epimastigotes; type: cell-based, Trypanosoma cruzi; details: mouse; CC50 J774.A1 / IC50 T. cruzi epimastigotes; read-out: Selectivity Trypanosoma SI (CC50/IC50)
Experimental: (§1) In a 96-well plate, a serial dilution of the tested derivatives was performed in liver infusion tryptose medium supplemented with 10% heat inactivated fetal bovine serum. Later, 100 µL of 5 × 10^5 cells/mL of epimastigotes was added to each well. Afterwards, 20 µL of alamarBlue® was added to each well, and the plate was maintained at 26 °C for 72 h.
(§2) Cytotoxicity effect of the tested derivatives was conducted using macrophages of the murine cell line J774.A1 (American Type Culture Collection #TIB-67, city, country), as previously described. The cells were maintained in DMEM at 37 °C in a 5% CO2 humidified incubator. All the plates containing alamarBlue® were analyzed using a plate reader EnSpire Multimode Plate Reader® at excitation and emission wavelengths of 570 and 585 nm, respectively (PerkinElmer, ThermoFisher Scientific, Madrid, Spain). The IC50 (concentrations able to inhibit 50% of parasites), IC90 (concentrations able to inhibit 90% of parasites), and CC50 (concentration able to inhibit 50% of murine macrophages) values were determined for each compound by nonlinear regression using GraphPad software.

[2] = system: T. cruzi epimastigotes; assay: alamarBlue assay on T. cruzi epimastigotes; type: cell-based, Trypanosoma cruzi; details: mean ± SD, triplicates
Experimental: as §1, §2

[3] = Intramacrophagic stage assay, T. cruzi in J774.A1 macrophages; type: cell-based, Trypanosoma cruzi; details: mouse; CC50 J774.A1 / IC50 intracellular T. cruzi; read-out: Selectivity Trypanosoma SI (CC50/IC50)
Experimental: (§3) Briefly, in a 96-well plate, macrophages from the J774.A1 cell line were seeded at a final concentration of 2 × 10^5 cells/mL in Dulbecco’s Modified Eagle Medium (DMEM) and maintained at 37 °C in a 5% CO2 atmosphere until fully adhesion. Cells were infected either with L. amazonensis promastigotes (at a ratio of 1:10) or epimastigotes of T. cruzi (at a ratio of 1:7) (macrophage: parasite) and incubated at 37 °C in 5% CO2 for 24 h for Leishmania and 48 h for Trypanosoma. After infection, plates were washed using DMEM to eliminate external parasites. Subsequently, infected macrophages were treated with different concentrations of active compounds for 24 h. Later, macrophages were lysed using 30 μL of medium, Schneider for Leishmania, and in liver infusion tryptose for Trypanosoma, containing 0.05% of sodium dodecyl sulfate (SDS) for 30 s under agitation. Afterwards, 170 μL of the appropriated medium was derivatives added to each well to give a final volume of 200 μL. Subsequently, 10% of alamarBlue® was added into each well and the plate was incubated at 26 °C for 72 h.
as §2

[4] = system: intramacrophage T. cruzi; assay: as above; type: cell-based, Trypanosoma cruzi; details: Trypanosoma cruzi; intramacrophage stage in J774.A1, 24 h treatment; mean ± SD; read-out: T. cruzi Intracellular IC50
Experimental: as §3, §2

[5] = Cytotoxicity assay on murine macrophages (alamarBlue); type: cell-based; details: mouse, mean ± SD
Experimental: as §2

[6] = alamarBlue assay on L. amazonensis promastigotes; type: cell-based, Leishmania amazonensis; details: mouse; CC50 J774.A1 / IC50 L. amazonensis promastigotes; read-out: Selectivity Leishmania SI (CC50/IC50)
Experimental: (§4) The assay was conducted using the alamarBlue® method as previously described. Briefly, promastigotes of L. amazonensis were grown at 26 °C in Schneider’s medium (US Biological, Life sciences) and supplemented with 10% heat-inactivated fetal bovine serum and 0.04% of sodium bicarbonate. In a 96-well microtiter plates (Corning™, Corning, NY, USA) a serial dilutions of thymol derivatives were first prepared, and later, 10^6 parasites/mL were added into each well. Subsequently, 10% of alamarBlue® was added to the entire plate. The plates were incubated for 72 h at 26 °C.
as §2

[7] = system: L. amazonensis promastigotes; assay: alamarBlue assay on L. amazonensis promastigotes; type: cell-based, Leishmania amazonensis; details: mean ± SD, triplicates
Experimental: as §4, §2

[8] = system: promastigote stage of L. major; set-up: method as in PMID 37595813; details: cited from earlier work
[9] = system: promastigote stage of L. tropica; set-up: method as in PMID 37595813; details: cited from earlier work
[10] = system: L. infantum; set-up: method as in PMID 31151304; details: cited from earlier work
[11] = system: L. chagasi; set-up: method as in PMID 20428679; details: cited from earlier work
[12] = system: L. amazonensis; set-up: method as in PMID 28509873; details: cited from earlier work
[13] = system: promastigote stage of L. infantum and L. chagasi; set-up: method as in PMID 25281268; details: cited from earlier work
[14] = system: amastigote stage of L. infantum and L. chagasi; set-up: method as in PMID 25281268; details: cited from earlier work
[15] = Intramacrophagic stage assay, L. amazonensis in J774.A1 macrophages; type: cell-based, Leishmania amazonensis; details: mouse; CC50 J774.A1 / IC50 intracellular L. amazonensis; read-out: Selectivity Leishmania SI (CC50/IC50)
Experimental: as §3, with “fully adhesion. […] After infection,” for “fully adhesion. Cells were infected either with L. amazonensis promastigotes (at a ratio of 1:10) or epimastigotes of T. cruzi (at a ratio of 1:7) (macrophage: parasite) and incubated at 37 °C in 5% CO2 for 24 h for Leishmania and 48 h for Trypanosoma. After infection,”, “72 h. Cytotoxicity effect of the tested derivatives was conducted using macrophages of the murine cell line J774.A1 (American Type Culture Collection #TIB-67, city, country), as previously described. The cells were maintained in DMEM at 37 °C in a 5% CO2 humidified incubator.” for “72 h.”

[16] = system: intramacrophage L. amazonensis; assay: as above; type: cell-based, Leishmania amazonensis; details: Leishmania amazonensis; intramacrophage stage in J774.A1, 24 h treatment; mean ± SD; read-out: L. amazonensis Intracellular IC50
Experimental: as §3, with “fully adhesion. […] After infection,” for “fully adhesion. Cells were infected either with L. amazonensis promastigotes (at a ratio of 1:10) or epimastigotes of T. cruzi (at a ratio of 1:7) (macrophage: parasite) and incubated at 37 °C in 5% CO2 for 24 h for Leishmania and 48 h for Trypanosoma. After infection,”, “72 h. Cytotoxicity effect of the tested derivatives was conducted using macrophages of the murine cell line J774.A1 (American Type Culture Collection #TIB-67, city, country), as previously described. The cells were maintained in DMEM at 37 °C in a 5% CO2 humidified incubator.” for “72 h.”

[17] = Trypanosoma cruzi, 72 h, epimastigotes, alamarBlue, 72 h at 26 °C, read-out: T. cruzi Epimastigote IC50
[18] = Leishmania amazonensis, 72 h, promastigotes, alamarBlue, 72 h at 26 °C, read-out: L. amazonensis Promastigote IC50
[19] = epimastigotes, alamarBlue, 72 h at 26 °C, read-out: T. cruzi Epimastigote IC50

Row | SMILES | selectivity ratio [1] | IC50 [2, 17] [µM] | CC50 ([5]; J774.A1 macrophage cell line) [µM] | selectivity ratio [6] | IC50 [7, 18] [µM] | also measured
1 | O=C(Cn1ccnc1[N+](=O)[O-])NCc1ccccc1 [B, Benznidazole, reference compound] | 58 | 6.9 ± 0.8 | 399.9 ± 1.4 | – | – | selectivity ratio [3]: 148; IC50 [4]: 2.7 ± 0.4 µM
2 | Cc1ccc(C(C)C)c(O)c1 [Compound 1, thymol] | > 1.5 | 206 ± 2.8 | > 300 | > 0.9 | 318 ± 21.4 | activity against promastigote stage of L. major [8]: inactive; activity against promastigote stage of L. tropica [9]: inactive; IC50 against L. infantum [10]: 7.2 µg/mL (≈ 47.9 µM); IC50 against L. chagasi [11]: 28.0 µg/mL (≈ 186 µM); IC50 against L. amazonensis [12]: 26.8 µg/mL (≈ 178 µM)
3 | CC(=O)Oc1cc(C)ccc1C(C)C [Derivative 2, thymyl acetate] | – | > 350 | – | – | > 350 | EC50 against promastigote stage [13]: 9.07 µg/mL; EC50 against amastigote stage [14]: 10.95 µg/mL
4 | Cc1ccc(C(C)C)c(OC(=O)CCl)c1 [Derivative 3, thymyl chloroacetate] | > 6.1 | – | – | > 3.8 | – | IC50 ([7]; Leishmania amazonensis, promastigotes, alamarBlue, 72 h at 26 °C, read-out: L. amazonensis Promastigote IC50): 78.8 ± 15.9 µM; IC50 ([2]; Trypanosoma cruzi, epimastigotes, alamarBlue, 72 h at 26 °C, read-out: T. cruzi Epimastigote IC50): 49.5 ± 3.2 µM; CC50 ([5]; murine macrophages J774.A1): > 300 µM
5 | Cc1ccc(C(C)C)c(OCC(=O)OC(=O)CCl)c1 [Derivative 4, 2-thymyl-2′-(chloro)-acetic anhydride] | 0.9 | 124 ± 6 | 120.9 ± 0.4 | 0.8 | 148 ± 10 | –
6 | CCCC(=O)Oc1cc(C)ccc1C(C)C [Derivative 5, thymyl butyrate] | > 1.4 | 150 to 250 | > 300 | > 1.4 | 150 to 250 | IC50 ([7]; promastigotes, alamarBlue, 72 h at 26 °C, read-out: L. amazonensis Promastigote IC50): 216 ± 7.5 µM; IC50 [2, 19]: 211 ± 7.3 µM
7 | Cc1ccc(C(C)C)c(OC(=O)CCC(=O)O)c1 [Derivative 6, thymyl hemisuccinate] | – | > 350 | – | – | > 350 | –
8 | Cc1ccc(C(C)C)c(OC(=O)c2ccccc2)c1 [Derivative 7, thymyl benzoate] | > 4.5 | 66 ± 1.7 | > 300 | > 5.4 | 56 ± 5.6 | EC50 against promastigote stage [13]: 8.67 µg/mL (≈ 34.1 µM); EC50 against amastigote stage [14]: 15.09 µg/mL (≈ 59.3 µM)
9 | Cc1ccc(C(C)C)c(OC(=O)c2ccc([N+](=O)[O-])cc2)c1 [Derivative 8, thymyl-4-nitrobenzoate] | > 6.8 | 50 to 150 | > 300 | > 3.9 | 76.4 ± 6.2 | IC50 [2, 19]: 44.4 ± 2.5 µM
10 | Cc1ccc(C(C)C)c(OC(=O)Oc2ccc([N+](=O)[O-])cc2)c1 [Derivative 11, thymyl-4-nitrophenylcarbonate] | > 4.5 | 66.9 ± 3.8 | > 300 | > 5.2 | 56.9 ± 7.2 | –
11 | Cc1ccc(C(C)C)c(OC(=O)N(C)C)c1 [Derivative 12, thymyl N,N-dimethyl carbamate] | > 1.9 | – | – | > 1.3 | – | IC50 ([7]; Leishmania amazonensis, 72 h, read-out: L. amazonensis Promastigote IC50, promastigotes, alamarBlue, 72 h at 26 °C): 150 to 250 µM; IC50 ([7]; read-out: L. amazonensis Promastigote IC50, promastigotes, alamarBlue, 72 h at 26 °C): 229 ± 21.4 µM; IC50 ([2]; Trypanosoma cruzi, 72 h, read-out: T. cruzi Epimastigote IC50, epimastigotes, alamarBlue, 72 h at 26 °C): 150 to 250 µM; IC50 ([2]; read-out: T. cruzi Epimastigote IC50, epimastigotes, alamarBlue, 72 h at 26 °C): 158 ± 2.9 µM; CC50 ([5]; murine macrophages J774.A1): > 300 µM
12 | CCCCCCCCCCCCCCCCOP(=O)([O-])OCC[N+](C)(C)C [M, Miltefosine, reference compound] | – | – | 72.2 ± 8.9 | 11.1 | 6.5 ± 0.3 | selectivity ratio [15]: 23.3; IC50 [16]: 3.1 ± 0.3 µM

Source: article PMC12024213, “Mechanism Insight of Cell Death Signaling by Thymol Derivatives on Trypanosomatidae Protozoan Parasites” (Antibiotics, 2025)
